Experimental data taken from patent US20250114286A1, “METHOD FOR STABILIZING CERAMIDE AND COSMETIC COMPOSITION COMPRISING STABILIZED CERAMIDE” (COSMECCA KOREA Co., Ltd., priority 2023, published 2025).

Legend:
[1] = DPPH radical scavenging activity test; format: biochemical; settings: positive control at 0.01%
Protocol: In order to confirm the anti-oxidation efficacy of ceramide and bioactive material-containing nanoparticle capsules, a DPPH radical scavenging activity test was conducted. The DPPH radical scavenging activity was measured by the reducing power of the sample relative to the DPPH radical. A 0.4 mM solution was prepared by dissolving DPPH (1,1-Diphenyl-2-picrylhydrazyl) reagent in ethanol. Then 100 μL of the solution of each sample corresponding to Example 1, Comparative Examples 1, and 2, or positive control BHT (Butylated hydroxyl toluene or 2,6-Di-tert-butyl-p-cresol) was dissolved in ethanol, was added to 100 μL of the 0.4 mM DPPH solution in a 96 well plate and mixed. At this time, ethanol was treated as a negative control, and after mixing, the mixture reacted at 37° C. for 30 minutes. Absorbance was measured at 517 nm using ELISA reader, and the DPPH radical scavenging ability (%) of the sample or BHT as a positive control was calculated using the following formula.
DPPH radical scavenging ability (%)={1−(absorbance of positive control or sample/absorbance of control)}×100

[2] = system: AQP3; assay: Moisturizing efficacy: AQP3 mRNA expression by qRT-PCR in UVB-irradiated HDFa cells; format: cell-based, Human; settings: UVB 15 mJ/cm^2, positive control at 0.01%
Protocol: In order to confirm the moisturizing efficacy of ceramide and bioactive substance-containing nanoparticle capsule, the effect on AQP3 expression was evaluated. After inoculating Human dermal fibroblast (HDFa) cell lines, they were cultured at 37° C. for 24 hours under 5% CO2 in Fibroblast Basal Medium (Medium 106) containing 100 IU/mL penicillin and 100 μg/mL streptomycin. The medium of each well was removed and replaced with fresh serum-free medium. Each well was subjected to pretreatment for 4 hours by administering the samples corresponding to Example 1 and Comparative Examples 1 and 2 at each concentration. 15 mJ/cm^2 UVB was irradiated to each well plate by a UVB irradiation device (vilber loumet, France). The sample was treated with the diluted serum-free medium, and then further cultured for 24 hours. At this time, a negative control was treated with PBS, and a positive control was treated with Hyaluronic acid at 0.01%. After the cell culture was completed, the cells were lysed using Ribo Ex™ Total RNA Isolation Solution (GeneAll Biotechnology, Korea) and scraper, and then 0.2 mL chloroform (Sigma-Aldrich, USA) was added thereto to perform centrifugation (12,000 rpm, 4° C., 30 minutes). […]

Molecule	DPPH radical scavenging ability (%) [1] [%]	Relative AQP3 expression (% of control) [2]
Cc1cc(C(C)(C)C)c(O)c(C(C)(C)C)c1 [BHT, 2,6-Di-tert-butyl-p-cresol]	62.08	
Hyaluronic acid		149.52 % of control
